Tests used:
human skin fibroblasts = test: Cell viability by photomicrography, comparison with Cisplatinum and Docetaxol, fibroblasts; details: 10 μg and 100 μg, compared with 1 μg; 48 hours
[1] = system: ovarian cancer cell line JC; details: 48 hours

Row | SMILES | cell viability in fibroblasts (human skin fibroblasts) | cytotoxicity in JC cells, treatments compared ([1]; 10 μg dosage level) | resistance of JC cells [1]
1 | N.N.[Cl][Pt][Cl] [Cisplatinum] | greater reduction in cell viability |  | 
2 | CC(=O)O[C@@]12CO[C@@H]1C[C@H](O)[C@@]1(C)C(=O)[C@H](O)C3=C(C)[C@@H](OC(=O)[C@H](O)[C@@H](NC(=O)OC(C)(C)C)c4ccccc4)C[C@@](O)([C@@H](OC(=O)c4ccccc4)[C@H]21)C3(C)C [Docetaxol] | greater reduction in cell viability | less cytotoxic than either the Calomeria extract or Cisplatinum | more resistant
